In paper PMC7672424 (Nucleic Acids Research, 2020):

How the values were obtained:
[1] = test system: c-KIT2 (DNA, G4) GGGCGGGCGCGAGGGAGGGG; experiment: ligand fluorescence enhancement; conditions: 100 mM K+ (KCl) plus potassium phosphate; 10 mM K2HPO4/KH2PO4 pH 7.0; 3 µM compound, 4 µM DNA; enhancement below 3-fold
[2] = test system: FAM-TTA45-TAMRA (DNA, G4) GGGTTAGGGTTAGGGTTAGGGTTAGGGTTAGGGTTAGGGTTAGGG; experiment: FRET melting; conditions: 100 mM K+ (KCl) plus potassium phosphate; 10 mM K2HPO4/KH2PO4 pH 7.0; 0.5 µM DNA, 20 µM compound
[3] = test system: human normal liver cells (HL-7702); experiment: Cell cytotoxicity assay (CCK8); format: cell-based; conditions: L02, CCK8, 48 h treatment
Method: (§1) The cell growth effect of BMPQ-1 against different cell lines were tested via measuring the quantity of living cells using the Cell Counting Kit-8 (CCK8) (DOJINDO, Japan) according to the instruction. Cells were seeded in a 96-well plate (5 × 10^3 cells/well) and grown for 24 h for attachment. Then the cells were treated with various concentrations of BMPQ-1 and incubated at 37°C with 5% CO2 for 48 h. After incubation, the old medium was discarded followed by adding fresh medium containing 10% FBS in DMEM. Then 100 μl CCK-8 (10% in grow medium) was added into each well, and the cells were further incubated for 1 h. The optical density (OD) was detected at 450 nm by an automated microplate reader (Bio-Rad). The IC50 values were derived from the curves of the mean percentage of survival against the drug concentration. All the experiments were performed in triplicate.
A Cell Counting Kit-8 (CCK8) (DOJINDO, Japan) was employed to evaluate the cytotoxicity of BMPQ-1 on human alveolar basal epithelial cancer cell line (A549), human hepatocellular carcinoma cancer cell line (HepG2), human gastric cancer cell line (MGC-803), human colon adenocarcinoma (HT29), human normal liver Cells (HL-7702).

[4] = test system: tumor cell; experiment: Tumor cell proliferation (summary statement); format: cell-based; conditions: summary value, abstract/introduction
Method: as §1

[5] = test system: BG4 foci (DNA G-quadruplexes) in A549 cells; experiment: Immunofluorescence of BG4 and TRF2 foci; format: cell-based, human; conditions: A549, 1.5 μM, 24 h
Method: The cells (5 × 10^4 cells) were seeded on 35-mm glass-bottomed dishes and grown for 24 h for attachment. Then old medium was replaced by fresh DMEM containing 1.5 μM BMPQ-1 and incubated for 24 h. After washed three times with PBS buffer, the cells were fixed in 4% paraformaldehyde/PBS for 15 min and then permeabilized with 0.3% Triton-X 100/PBS at 37°C for 20 min. Then the cells were blocked with 5% BSA/PBS at 37°C for 1 h. Finally, the cells were incubated with primary antibodies at 37°C for 3 h. After that, the cells were washed six times with blocking buffer, and were then incubated with secondary antibodies at 37°C for 3 h. Finally, the cells were washed six times with PBS buffer again. The digital images were recorded using a confocal laser scanning microscopy (Olympus FV1000) and analyzed with ImageJ software. One hundred nuclei were counted in each group. […]
Figure 2. […] (B) Quantification of the number of γH2AX foci per nucleus in A549 cells treated with or without BMPQ-1. (C) Quantification of the colocalization of γH2AX and TRF2 per nucleus in A549 cells treated with or without BMPQ-1. […] (E) Quantification of the number of BG4 foci per nucleus in A549 cells treated with or without BMPQ-1. (F) Quantification of the colocalized BG4 and TRF2 per nucleus in A549 cells treated with or without BMPQ-1.

[6] = test system: TBA (DNA, G4) GGTTGGTGTGGTTGG; experiment: CD melting; conditions: 50 mM K+; 10 mM Tris-HCl pH 7.4; 5 µM DNA, 20 µM compound
[7] = test system: TTA51/T3 (DNA, G4) GGGTTAGGGTTAGGGTTAGGGTTATTATTAGGGTTAGGGTTAGGGTTAGGG; experiment: fluorescence titration; conditions: 100 mM K+ (KCl) plus potassium phosphate; 10 mM K2HPO4/KH2PO4 pH 7.0; 3 µM compound, DNA 0-10 µM; weaker than TTA45
[8] = test system: TTA45 (DNA, G4) GGGTTAGGGTTAGGGTTAGGGTTAGGGTTAGGGTTAGGGTTAGGG; experiment: ligand fluorescence enhancement; conditions: 100 mM K+ (KCl) plus potassium phosphate; 10 mM K2HPO4/KH2PO4 pH 7.0; 3 µM compound, 2 µM DNA; 10-fold increase at 521 nm
[9] = test system: TTA (DNA, G4) GGGTTAGGGTTAGGGTTAGGG; experiment: CD melting; conditions: 50 mM K+; 10 mM Tris-HCl pH 7.4; 5 µM DNA, 20 µM compound
[10] = test system: TTA45 (DNA, G4) GGGTTAGGGTTAGGGTTAGGGTTAGGGTTAGGGTTAGGGTTAGGG; experiment: CD melting; conditions: 50 mM K+; 10 mM Tris-HCl pH 7.4; 5 µM DNA, 20 µM compound

For Cc1ccc(Cn2cc3c(-c4ccc5c(c4)OCO5)nnc-3c3cc4c(cc32)OCO4)cc1 [BMPQ-1], the binding [1] was “weak”, the ΔTm [2] was 16.09 ± 1.79 °C and the IC50 [3] was 4.38 ± 0.39 µM. The IC50 [4] was about 1000 nM, the “amount of BG4 foci in the nucleus” value [5] was “significant increase” and the “amount of co-localized BG4 and TRF2 foci” value [5] was “significantly increased”. For the same compound, the ΔTm [6] was 4.7 °C, the binding [7] was “yes” and the binding [8] was “yes”. For the same compound, the ΔTm [9] was 8.4 °C and the ΔTm [10] was 14.6 °C.
